Test system: TCL1 CLL cells (CD5+CD19+), T and B lymphocytes
Assay: TCL1 transgenic CLL mice, oral LDC526, longitudinal blood and final spleen analysis
Assay type: in vivo, mouse
Description: Another widely used preclinical CLL model are TCL1 transgenic mice. The TCL1 transgenics represent a constitutive CLL model not involving the adoptive transfer of cells. This model mirrors the natural course of human IgVH-unmutated CLL including its disease progression. In addition, this model has also been widely used by others to test novel therapeutic molecules. […] Consecutive blood sampling allowed us to carry out a longitudinal study in individual TCL1 and control mice. For this, we chose a cohort of TCL1 and littermate control mice, which were 9-12 months old (Figure 5A). We chose TCL1 transgenics with high peripheral CLL cell (CD19+CD5+) counts (14.6±7.4/nl, mean±SEM). Given the presumably high leukemic burden in these aged TCL1 mice and the reduced general condition of some NSG mice receiving 75 mg/kg for 5 days we decided to dose TCL1 mice with 50 mg/kg daily for two consecutive days (Figure 5A). As the experiment was longitudinally designed and there was no effect expected of administering carrier to wild-type control mice we omitted this control group and established three experimental groups (Figure 5A). In order to minimize stress by collecting blood specimens we sampled blood three times, 8 days apart (days -5, +3 and +11; Figure 5A). Compared to blood smears prepared before commencing LDC526 treatment a marked decrease of peripheral blood leukocytes and CLL cells was observed two days post the last LDC526 administration to TCL1 transgenic mice (Figure 5B). In contrast to the carrier control treated TCL1 mice, white blood cell counts (WBC) dropped in LDC526-treated wild-type and TCL1 mice (Figure 5C). In comparison to wild-type control mice, where WBC dropped to 34% of baseline values, the WBC decrease in TCL1 mice was more dramatic dropping to 8% of baseline values (Figure 5D).
All mice were bred and housed at the University Hospital Essen animal care facility. TCL1 mice were back-crossed more than 6 generations into the C57BL/6 background and were genotyped as previously described. Age-matched TCL1 wild-type littermates served as controls. Peripheral blood counts were determined with the VetABC analyzer (scil, Viernheim, Germany). Blood smears were Wright-Giemsa stained. For the human CLL xenograft experiments eight to 14-week-old NOD.Cg-Prkdc^scid Il2rg^tm1Wjl/SzJ (NOD/scid/γc^null; NSG) mice were sublethally irradiated (3.25 Gy) 24 hours before transplantation. Freshly isolated 1.0 x 10^8 PBMC suspended in 0.2 ml of RPMI were intravenously transplanted as previously described. For oral administration, LDC526 was diluted in polyethelene glycol (PEG Mn 400, Sigma-Aldrich) and administerd by gavage. Animal experiments were performed in accordance with institutional guidelines approved by the Animal Care Committee of the University Hospital Essen.
LDC526 [(3-((4-(4-fluoro-2-methoxyphenyl)-1,3,5-triazin-2-yl)amino)phenyl)methane-sulfonamide, molecular weight 389,41 g/mol, Figure 1A] was provided as powder (LDC526 synthesis, supplementary methods). For oral gavage administration LDC526 was diluted in polyethelene glycol (PEG Mn 400, Sigma-Aldrich, Munich, Germany) followed by sonication for 3 x 5 minutes with intermediate mixing.
Apoptosis and cell death were determined by using Annexin V (BD Biosciences, Heidelberg, Germany) and 4′,6-Diamidin-2-phenylindol (DAPI, Sigma-Aldrich) staining. Erythrocytes of murine peripheral blood samples were lysed with NH4Cl hypotonic solution. Single cell suspensions of murine spleens were prepared as previously described. Murine cells were stained with antibodies directed against murine CD3 (clone 145-2C11), CD5 (53-7.3) and CD19 (1D3), respectively. For the detection of human cells in NSG spleens antibodies against human CD3 (clone SK7), CD4 (SK3), CD5 (L17F12), CD8 (SK1), CD19 (J3-119 or SJ25C1) and CD45 (2D1) were used (purchased from BD Bioscience, Biolegend and Beckman Coulter). […]

## COc1cc(F)ccc1-c1ncnc(Nc2cccc(CS(N)(=O)=O)c2)n1 [LDC526, (3-((4-(4-fluoro-2-methoxyphenyl)-1,3,5-triazin-2-yl)amino)phenyl)methane-sulfonamide]
50 mg/kg for two days
  decrease of peripheral blood CLL counts of individual TCL1 mice: at least 8 fold
50 mg/kg for two days, day +3
  decrease of TCL1 blood T cells: 6 fold
  decrease of mean TCL1 blood CLL numbers compared to baseline: 16 fold
LDC526-treated mice, longitudinal
  hemoglobin counts: did not change significantly
TCL1 mice
  increase of peripheral blood CLL numbers on day +11 compared to day +3: 29%
TCL1 mice after LDC526 treatment
  mean platelet concentrations, percent of baseline levels: ≥ 50%
TCL1 mice, 50 mg/kg daily for two days, day +3
  WBC, percent of baseline values: 8%
TCL1 mice, 50 mg/kg for two days
  drop of mean WBC: 12 fold
TCL1 mice, peripheral blood
  non-malignant B cell numbers, percent of baseline values: 1.4%
Day +3
  peripheral blood TCL1 CLL cells, percent of baseline levels: 6.4%
Day +11
  splenic weights versus carrier control TCL1 mice: significantly lower

— PMC5995184, “Potent anti-leukemic activity of a specific cyclin-dependent kinase 9 inhibitor in mouse models of chronic lymphocytic leukemia” (Oncotarget, 2018)
